These results are taken from paper PMC3821043 (Biochemical pharmacology, 2012).

By IC50 is commonly meant the concentration needed to halve the response being measured. A low value points to higher potency.

This test deals with T1, ABCG2 (breast cancer resistance protein) (Homo sapiens, UniProt Q9UNQ0).
T1 sequence (Q9UNQ0 1-655): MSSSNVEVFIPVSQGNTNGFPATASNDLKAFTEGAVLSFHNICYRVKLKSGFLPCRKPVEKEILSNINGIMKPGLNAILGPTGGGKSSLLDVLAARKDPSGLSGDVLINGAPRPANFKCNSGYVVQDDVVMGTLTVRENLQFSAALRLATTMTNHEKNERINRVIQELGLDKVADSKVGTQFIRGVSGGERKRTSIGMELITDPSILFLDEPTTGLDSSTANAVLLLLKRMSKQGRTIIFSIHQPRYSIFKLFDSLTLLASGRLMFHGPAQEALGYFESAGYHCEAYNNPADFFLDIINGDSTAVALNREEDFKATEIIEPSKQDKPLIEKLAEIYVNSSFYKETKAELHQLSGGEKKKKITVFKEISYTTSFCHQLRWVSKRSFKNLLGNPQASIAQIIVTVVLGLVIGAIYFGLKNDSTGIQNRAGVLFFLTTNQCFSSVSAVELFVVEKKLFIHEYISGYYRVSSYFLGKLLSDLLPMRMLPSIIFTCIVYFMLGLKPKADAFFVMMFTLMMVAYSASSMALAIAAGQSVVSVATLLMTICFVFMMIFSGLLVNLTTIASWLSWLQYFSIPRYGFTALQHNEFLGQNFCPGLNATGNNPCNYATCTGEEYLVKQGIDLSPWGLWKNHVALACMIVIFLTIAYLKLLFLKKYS
Kind of test: competition of […]IAAP photoaffinity labeling. The test is classed as binding.

Molecule `CN1CCC(CNc2ccc3ncc(-c4cccc(OC(F)(F)F)c4)n3n2)CC1` [SGI-1776] showed an IC50 of 0.09 µM. This counts as double-digit nanomolar.
